Laboratory results: patent US20090209605A1, “NEMATICIDAL COMPOSITIONS” (Devgen N.V., priority 2004, published 2009)

What was measured:
Format in all cases: in vivo
[1] = test system: stubby root nematodes (Paratrichodorus), stunt nematodes (Tylenchorhynchus spp.), root lesion nematodes (Pratylenchus spp.) and root knot nematodes …; test: Nematicide field trial on carrots: % deformed carrots
Protocol: Garden carrots were grown in the open field. The soil contained high levels of stubby root nematodes (Paratrichodorus), stunt nematodes (Tylenchorhynchus spp.), root lesion nematodes (Pratylenchus spp.) and root knot nematodes (Meloidogyne spp.).
(§1) An experimental pattern at Complete Randomized Blocks with four replicas was adopted. Besides the experimental products, each test also included an untreated control and a treatment with the standard commercial product VYDATE 10L (10%) applied in accordance to label instructions.
In carrots, nematodes cause deformation such as stunting, dwarfing, twisting, splitting and bearding. For these experiments, the total percentage of deformed carrots were considered, as these are not marketed for human consumption and are of no commercial interest.
Three different tests have been performed (Tables 9, 10 and 11), each containing an untreated and commercial reference control. All treatments were statistically different from untreated control.

[2] = test system: Meloidogyne incognita nematodes; test: Pot Assay 1: Meloidogyne infection of potato, egg masses/galls on roots; settings: potato in pot, week 8 after inoculation
Protocol: 500 ml clay pots were filled with 400 ml of silver sand. One tuber of potato ( Solanum tuberosum cv. Bintje) was planted in the sand. After 2 to 3 weeks incubation, the potato plant was sufficiently developed to be inoculated.
Plants were grown under the usual standard greenhouse conditions at 14° C.-18° C., with 16 hours light and 8 hours dark and 80-90% relative humidity. The pots were watered using individual drippers and fertilizers were added under the form of macro- and micro nutrients according to plant growth requirements. When needed, the plants were sprayed with fungicides and insecticides.
The compounds as described herein were added one day before inoculation. The compounds were dissolved in a 20 ml DMSO-solution and spread over the sand surface. The final concentration is calculated under the assumption that the compound is diffused entirely in the pot. This process occurred during two days at the normal greenhouse conditions described above.
After compound incubation, approximately 1500 juveniles of Meloidogyne incognita nematodes were added to the pots.
The pots were incubated at the described greenhouse conditions until nematode development was completed. At week 8 after inoculation the number of galls formed on the roots was counted after washing off the sandy substrate. Also the effect of the compound on the plant development was recorded.
Every compound was tested in three replicates. Positive control plants were treated with different concentrations of aldicarb, a known nematicide. Negative controls involved 12 replicates of double negative controls (no compound, no nematode), 12 replicates of single negative controls (no compound, no DMSO, with nematode), 24 replicates of DMSO controls (DMSO solution, with nematode).
As assessment of the root development was taken into account.

[3] = test system: Meloidogyne incognita; test: Root infestation on agar plate: root knot count on potato microplant roots; settings: 60 μM in agar, galls counted 5 weeks after inoculation, four replicates
Protocol: 9 cm petri dishes were filled with a 15 ml agar. One stem cutting of a potato microplant (Solanum tuberosum cv. Desirée) was placed on top of the agar layer. After 2 to 3 weeks of incubation at 20° C., the root system was sufficiently developed to be inoculated.
The test compounds (see Table 1) were added 2 days before inoculation by way of spreading a 2 ml DMSO-solution with the compound over the agar and allowing the compound to diffuse in the agar during two days at constant temperature of 20° C. During incubation, the plates are protected from light in a dark incubator. The resulting concentration of each compound in each agar plate was 60 μM.
After incubation, approximately 400 axenic juveniles of Meloidogyne incognita species were added to the plate.
The plates were incubated in the dark at a constant temperature of 20° C. and 5 weeks after inoculation the number of galls formed on the roots were determined by counting. Also any toxic effect of the test compounds on the roots was recorded. 8 weeks after inoculation the plates were stored at low temperature.
Each compound was tested in four replicates. Positive controls were treated with different concentrations of Aldicarb, a known nematicide. Negative controls included 5 replicates of double negative controls (no compound, no nematode), 5 replicates of single negative controls (no compound, with nematode) and 5 replicates of DMSO controls (DMSO solution, with nematode).

[4] = test system: root-knot nematode (Meloidogyne spp); test: Nematicide field trial on cucumber: root galling and yield; settings: for Average root galling: 0-5 Lamberti scale
Protocol: Open ground grown cucumber (Cucumis sativus cv Carine) were grown on sandy soil with a natural root-knot nematode (Meloidogyne spp) population. Soil samples, collected prior to planting, contained on average 8 J2 juveniles per 100 g soil. A program of 4 applications with intervals of about 14 days was started six days after transplantation.
as §1
[…] The level of nematode attack of the root system at the time of harvesting was assessed by means of the lamberti scoring.

Cc1cc(C2CC2)nc(Nc2ccccc2)n1 [XLIV]
% total deformed ([1]; test of Table 9, Product Rate 500 g ai/ha): 37.41% | % total deformed ([1]; test of Table 9, Product Rate 1500 g ai/ha): 44.85% | % total deformed ([1]; test of Table 9, Product Rate 3000 g ai/ha): 37.10% | number of egg masses (galls) on roots, Replicate 3 ([2]; 0.5 μM): 5 | number of egg masses (galls) on roots, Replicate 1 ([2]; 2 μM): 20 | number of egg masses (galls) on roots, Replicate 3 ([2]; 2 μM): 15 | number of egg masses (galls) on roots, Replicate 1 ([2]; 10 μM): 20 | number of egg masses (galls) on roots, Replicate 1 ([2]; 50 μM): 15 | number of egg masses (galls) on roots, Replicate 2 ([2]; 50 μM): 25 | number of egg masses (galls) on roots, Replicate 3 ([2]; 50 μM): 5 | Root knot count, average of the replicate counts [3]: 9.5 | Average yield of marketable fruits ([4]; Product Rate 500 g ai/ha): 7.3 kg/plant/pot | Average root galling ([4]; Product Rate 500 g ai/ha): 2.5 | Average yield of marketable fruits ([4]; Product Rate 1500 g ai/ha): 8.3 kg/plant/pot | Average root galling ([4]; Product Rate 1500 g ai/ha): 2.5
